Measurements: patent publication US20020086895A1, “Methods of treating fungal infections” (priority 1985, published 2002)

Assays:
[1] = system: Staphylococcus aureus KLE820; assay: Activity of selected aurones against Staphylococcus aureus KLE820; assay type: cell-based; conditions: read-out: % Inhibition of growth at 10 ug/ml
Text: Compounds described herein also have activity against bacteria.

[2] = system: Candida albicans (strain ATCC #90028); assay: Inhibition of Candida spp. culture (XTT); assay type: cell-based; conditions: for C. albicans minimum inhibitory concentration (MIC) compared with reported ranges: assay validation
Description: (§1) Candida albicans (strain ATCC #90028), Candida krusei (strain ATCC #90030), and Torulopsis (Candida) glabrata (strain ATCC #6258) were subcultured from cryopreserved stocks onto sabourand dextrose agar plates. Blastoconidia were suspended into RPMI-MOPS (media) and inoculated (500 cfu/well) into 96-well plates containing test compounds in a final volume of 100 μL/well. After 22 hours at 35° C., 25 μL of XTT (2,3-bis(2-methoxy-4-nitro-5-sulfophenyl)-5-[(phenylamino)carbonyl]-2H-tetrazolium hydroxide), (100 μg/mL) with PMS (phenazine methyl sulfate, 5 μM) were added to each well, followed by 2 hours of shaking. Growth was assessed spectrophotometrically by measuring the appearance of soluble formazan stain at 450 nm using an Emax microplate reader.

[3] = system: nine isolates (Aspergillus and Candida); assay: Standard controls of the antifungal assays of Example 12; assay type: cell-based
Description: Test compounds were tested against nine isolates in an eight-point dose response assay ranging from 50 μg/ml to 0.39 μg/ml. Aspergillus MIC's (minimum inhibitory concentrations) were scored visually after 48 and 72 hours at 37° C. […] Amphotericin B (2.5 μg/ml) and 5-flucytosine (2.0 μg ml) were standard controls for each antifungal assay. […] The results are shown below in Table 4, MIC values in μg/ml after 72 hours. HFF toxicity was analyzed after a 24 hour incubation at 37° C. (5% CO2). MTS/PMS was added, and the sample absorbance was read at 450 nm.

[4] = system: Candida krusei (strain ATCC #90030); assay: Inhibition of Candida spp. culture (XTT); assay type: cell-based; conditions: Pichia kudriavzevii, ATCC90030, C. krusei, 22 hours at 35° C., read-out: antifungal MIC
Description: as §1

[5] = system: Torulopsis (Candida) glabrata (strain ATCC #6258); assay: Inhibition of Candida spp. culture (XTT); assay type: cell-based; conditions: T. (C.) glabrata, 22 hours at 35° C., read-out: antifungal MIC
Description: as §1

C. albicans = assay: Antifungal screen of matrix-synthesis aurones in 96-well plates, C. albicans; assay type: cell-based, Candida albicans
Description: (§2) Thirty-eight 96-well plates were prepared with the above samples and tested against both C. albicans and A. fumigatus at either 8 μg/ml or 12.5 μg/ml. Plates with high activity were retested at the same concentration to confirm activity.
(§3) These compounds have formulae where W′ is OH, V is 3′,4′-(1,1-dimethylpropyloxy) to form a dihydropyran series, and X is selected from 3,4-dimethoxyphenyl, 4-t-butylphenyl, 2(prop-2-enyloxy)phenyl, 3-phenoxyphenyl, 3-ethoxy-4-hydroxyphenyl, 6-cyclohexenyl, and norborn-4-yl.

A. fumigatus = assay: Antifungal screen of matrix-synthesis aurones in 96-well plates, A. fumigatus; assay type: cell-based, Aspergillus fumigatus
Description: as §2, §3

| Compound | inhibition at 10 µg/mL [1] [%] | CA percent inhibition (C. albicans; @8 μg/ml) [%] | AF percent inhibition (A. fumigatus; @8 μg/ml) [%] | other results |
| --- | --- | --- | --- | --- |
| COc1ccc(/C=C2\Oc3cc(O)c(C/C=C/c4ccccc4)c(O)c3C2=O)cc1 | 83 |  |  |  |
| NC(=O)OC[C@H](O)[C@@H](O)[C@H](N)C(=O)N[C@H](C(=O)O)[C@H]1O[C@@H](n2cc(C(=O)O)c(=O)[nH]c2=O)[C@H](O)[C@@H]1O [polyoxin D] |  |  |  | C. albicans minimum inhibitory concentration (MIC) compared with reported ranges [2]: within reported ranges |
| Nc1nc(=O)[nH]cc1F [5-flucytosine] |  |  |  | inhibition by standard control ([3]; 2.0 μg ml): total inhibition; C. albicans minimum inhibitory concentration (MIC) compared with reported ranges [2]: within reported ranges |
| CCCCCOc1ccc(/C=C2\Oc3cc(O)cc(O)c3C2=O)cc1 | 98.6 |  |  |  |
| C=CCc1c(O)cc2c(c1O)C(=O)/C(=C/c1ccc(-c3ccccc3C(F)(F)F)o1)O2 | 76.5 |  |  |  |
| O=C1/C(=C/c2c(Br)cc(Br)c(O)c2Br)Oc2cc(O)c(Cc3ccccc3)c(O)c21 | 100 |  |  |  |
| O=C1/C(=C/c2cc([N+](=O)[O-])ccc2O)Oc2cc(O)c(Cc3ccccc3)c(O)c21 | 100 |  |  |  |
| C[C@@H]1[C@H](O)[C@@H](C)/C=C/C=C/C=C/C=C/C=C/C=C/C=C/[C@H](O[C@@H]2O[C@H](C)[C@@H](O)[C@H](N)[C@@H]2O)C[C@@H]2O[C@](O)(C[C@@H](O)C[C@@H](O)[C@H](O)CC[C@@H](O)C[C@@H](O)CC(=O)O[C@H]1C)C[C@H](O)[C@H]2C(=O)O [Amphotericin B] |  |  |  | inhibition by standard control ([3]; 2.5 μg/ml): total inhibition; C. albicans minimum inhibitory concentration (MIC) compared with reported ranges [2]: within reported ranges |
| O=C1/C(=C/c2cc(Cl)cc(Cl)c2O)Oc2cc(O)c(Cc3ccccc3)c(O)c21 | 100 |  |  |  |
| CC(C)=CCc1c(O)cc2c(c1O)C(=O)/C(=C\c1cc(O)c(O)cc1-c1c(O)cc3c(c1O)C(=O)/C(=C\c1ccc(O)c(O)c1)O3)O2 [Formula (VI)] |  |  |  | MIC ([2]; Candida albicans, ATCC90028, C. albicans, XTT, 22 hours at 35° C., read-out: antifungal MIC): 25 µg/mL; MIC [4]: 7.48 µg/mL; MIC [5]: 1.74 µg/mL |
| CC(C)=CCc1c(O)cc2c(c1O)C(=O)C(=Cc1ccc(O)c(O)c1)O2 [drawing 36+drawing 32] |  |  |  | CA percent inhibition (C. albicans; @12.5 μg/ml): 92%; AF percent inhibition (A. fumigatus; @12.5 μg/ml): 0% |
| Cc1cc(C)cc(C=C2Oc3cc(O)cc(O)c3C2=O)c1 |  |  |  | CA percent inhibition (C. albicans; @12.5 μg/ml): CA 4% AF; AF percent inhibition (A. fumigatus; @12.5 μg/ml): #17% @12.5 μg/ml |
| CCOc1ccc(C=C2Oc3cc4c(c(O)c3C2=O)CCC(C)(C)O4)cc1OC |  | 58 | 67 |  |
| C=CCc1c(O)cc2c(c1O)C(=O)C(=Cc1cccc(O)c1O)O2 |  | 45 | 0 |  |
| Cc1cc(C)c(C=C2Oc3cc4c(c(O)c3C2=O)CCC(C)(C)O4)c(C)c1 |  | 0 | 28 |  |
| O=C1C(=Cc2ccc(Oc3ccccc3)cc2)Oc2cc(O)cc(O)c21 |  |  |  | CA percent inhibition (C. albicans; @12.5 μg/ml): 57%; AF percent inhibition (A. fumigatus; @12.5 μg/ml): 48% |
| C=CCOc1ccccc1C=C1Oc2cc3c(c(O)c2C1=O)CCC(C)(C)O3 |  | 67 | 94 |  |
| C=CCc1c(O)cc2c(c1O)C(=O)C(=Cc1ccccc1C)O2 |  | 4 | 11 |  |
| CC(C)=CCc1c(O)cc2c(c1O)C(=O)C(=Cc1ccc(O)c(O)c1O)O2 |  |  |  | CA percent inhibition (C. albicans; @12.5 μg/ml): 89%; AF percent inhibition (A. fumigatus; @12.5 μg/ml): 0% |
| C=CCc1c(O)cc2c(c1O)C(=O)C(=Cc1c(C)cc(C)cc1C)O2 |  | 16 | 7 |  |
